Results from the supplement of paper PMC11208160.

Test: recombinant UMI read abundance after kanamycin selection (control-corrected) (log10(CPM+1)); higher = more efficient recombination; extreme values may be limits of the assay; sequences stand for … in AGTGCAGAGAAAATCGGCCAGTTTTCTCTGCCTGCAGTCCGCATGCCGTGGGACCCCTTGGGTTCTAACCTGTTGCCTAGATTTATGCAGCGGACTGCCTTTCTCCCAAAGTGATAAACCGG…AGGTTGGTTTCACT; site = the 11-nt donor
How it was run: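 The measure is log10(CPM+1) for recombinant UMIs. These were PCR-amplified across the donor–target junction and sequenced after Escherichia coli carrying a donor and donor-binding-loop pair library and a target plasmid with T7-inducible IS621 bridge recombinase was plated on IPTG (0.07 mM) plus kanamycin or unselected. CPM were averaged over two replicates and scaled by control-derived factors.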
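Also: IS621 bridge recombinase in Escherichia coli cells against a fixed T5 target plasmid.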

Row | Sequence | recombinant UMI read abundance (log10)
1 | GCGGAAACATGGACCGGTTTTCCCGGTAATCCGTATTTGCT (site GCGTAAACTAG) | 1.86
2 | GCGGAGGCATGGACCGGTTTTCCCGGTAATCCGTATTTGAA (site GCGGAGGCTTT) | 1.91
3 | GCGGTAACATGGACCGGTTTTCCCGGTAATCCGTATTTGAT (site GCGGTAACTAT) | 2.46
4 | GCGTAAACATGGACCGGTTTTCCCGGTAATCCGTATTTGCT (site GCGAAAACTAG) | 0
5 | GCGTAAACATGGACCGGTTTTCCCGGTAATCCGTATTTGCT (site GCGCAAACTAG) | 1.82
6 | GCGTAAACATGGACCGGTTTTCCCGGTAATCCGTATTTGCT (site GCGGAAACTAG) | 0.309
7 | GCGTAAACATGGACCGGTTTTCCCGGTAATCCGTATTTGCT (site GCGTAAACTAG) | 2.73
8 | GCGTACCCATGGACCGGTTTTCCCGGTAATCCGTATTTGAG (site GCGTACCCTCT) | 0.023
9 | GCGTACTCATGGACCGGTTTTCCCGGTAATCCGTATTTGAC (site GCGTACTCTGT) | 3.44
10 | GCGTCAACATGGACCGGTTTTCCCGGTAATCCGTATTTGGT (site GCGTCAACTAC) | 0.129
11 | GCGTTAGCATGGACCGGTTTTCCCGGTAATCCGTATTTGTG (site ACGTTAGCTCA) | 0.84
12 | GCGTTAGCATGGACCGGTTTTCCCGGTAATCCGTATTTGTG (site CCGTTAGCTCA) | 0.885
13 | GCGTTAGCATGGACCGGTTTTCCCGGTAATCCGTATTTGTG (site GCGTTAGCTCA) | 1.75
14 | GCGTTAGCATGGACCGGTTTTCCCGGTAATCCGTATTTGTG (site TCGTTAGCTCA) | 0.669
15 | GCGTTTCCATGGACCGGTTTTCCCGGTAATCCGTATTTGCT (site GCGTTTCCTAG) | 1.81
16 | GCTAAAGCATGGACCGGTTTTCCCGGTAATCCGTATTTGAT (site ACTAAAGCTAT) | 0.901
17 | GCTAAAGCATGGACCGGTTTTCCCGGTAATCCGTATTTGAT (site CCTAAAGCTAT) | 1.04
18 | GCTAAAGCATGGACCGGTTTTCCCGGTAATCCGTATTTGAT (site GCTAAAGCTAT) | 1.92
19 | GCTAAAGCATGGACCGGTTTTCCCGGTAATCCGTATTTGAT (site TCTAAAGCTAT) | 0.378
20 | GCTAATACATGGACCGGTTTTCCCGGTAATCCGTATTTGGC (site ACTAATACTGC) | 0
21 | GCTAATACATGGACCGGTTTTCCCGGTAATCCGTATTTGGC (site CCTAATACTGC) | 0.772
22 | GCTAATACATGGACCGGTTTTCCCGGTAATCCGTATTTGGC (site GCTAATACTGC) | 0.0276
23 | GCTAATACATGGACCGGTTTTCCCGGTAATCCGTATTTGGC (site TCTAATACTGC) | 0.548
24 | GCTACAACATGGACCGGTTTTCCCGGTAATCCGTATTTGAG (site GCTACAACTCT) | 0.921
25 | GCTACGCCATGGACCGGTTTTCCCGGTAATCCGTATTTGCG (site GCTACGCCTCG) | 0.00779

Row | Sequence | recombinant UMI read abundance (log10)
26 | GCTACTGCATGGACCGGTTTTCCCGGTAATCCGTATTTGAG (site GCTACTGCTCT) | 1.49
27 | GCTACTGCATGGACCGGTTTTCCCGGTAATCCGTATTTGCC (site ACTACTGCTGG) | 1.44
28 | GCTACTGCATGGACCGGTTTTCCCGGTAATCCGTATTTGCC (site CCTACTGCTGG) | 0.983
29 | GCTACTGCATGGACCGGTTTTCCCGGTAATCCGTATTTGCC (site GATACTGCTGG) | 0
30 | GCTACTGCATGGACCGGTTTTCCCGGTAATCCGTATTTGCC (site GCAACTGCTGG) | 0
31 | GCTACTGCATGGACCGGTTTTCCCGGTAATCCGTATTTGCC (site GCCACTGCTGG) | 0.445
32 | GCTACTGCATGGACCGGTTTTCCCGGTAATCCGTATTTGCC (site GCGACTGCTGG) | 0
33 | GCTACTGCATGGACCGGTTTTCCCGGTAATCCGTATTTGCC (site GCTAATGCTGG) | 0
34 | GCTACTGCATGGACCGGTTTTCCCGGTAATCCGTATTTGCC (site GCTACAGCTGG) | 0
35 | GCTACTGCATGGACCGGTTTTCCCGGTAATCCGTATTTGCC (site GCTACCGCTGG) | 0
36 | GCTACTGCATGGACCGGTTTTCCCGGTAATCCGTATTTGCC (site GCTACGGCTGG) | 0
37 | GCTACTGCATGGACCGGTTTTCCCGGTAATCCGTATTTGCC (site GCTACTACTGG) | 1.21
38 | GCTACTGCATGGACCGGTTTTCCCGGTAATCCGTATTTGCC (site GCTACTCCTGG) | 0
39 | GCTACTGCATGGACCGGTTTTCCCGGTAATCCGTATTTGCC (site GCTACTGCTAG) | 0.00694
40 | GCTACTGCATGGACCGGTTTTCCCGGTAATCCGTATTTGCC (site GCTACTGCTCG) | 0
41 | GCTACTGCATGGACCGGTTTTCCCGGTAATCCGTATTTGCC (site GCTACTGCTGA) | 0
42 | GCTACTGCATGGACCGGTTTTCCCGGTAATCCGTATTTGCC (site GCTACTGCTGC) | 0
43 | GCTACTGCATGGACCGGTTTTCCCGGTAATCCGTATTTGCC (site GCTACTGCTGG) | 1.11
44 | GCTACTGCATGGACCGGTTTTCCCGGTAATCCGTATTTGCC (site GCTACTGCTGT) | 0
45 | GCTACTGCATGGACCGGTTTTCCCGGTAATCCGTATTTGCC (site GCTACTGCTTG) | 0.255
46 | GCTACTGCATGGACCGGTTTTCCCGGTAATCCGTATTTGCC (site GCTACTTCTGG) | 0
47 | GCTACTGCATGGACCGGTTTTCCCGGTAATCCGTATTTGCC (site GCTAGTGCTGG) | 0
48 | GCTACTGCATGGACCGGTTTTCCCGGTAATCCGTATTTGCC (site GCTATTGCTGG) | 0
49 | GCTACTGCATGGACCGGTTTTCCCGGTAATCCGTATTTGCC (site GCTCCTGCTGG) | 0
50 | GCTACTGCATGGACCGGTTTTCCCGGTAATCCGTATTTGCC (site GCTGCTGCTGG) | 0.274

Row | Sequence | recombinant UMI read abundance (log10)
51 | GCTACTGCATGGACCGGTTTTCCCGGTAATCCGTATTTGCC (site GCTTCTGCTGG) | 0.74
52 | GCTACTGCATGGACCGGTTTTCCCGGTAATCCGTATTTGCC (site GGTACTGCTGG) | 1.03
53 | GCTACTGCATGGACCGGTTTTCCCGGTAATCCGTATTTGCC (site GTTACTGCTGG) | 0.815
54 | GCTACTGCATGGACCGGTTTTCCCGGTAATCCGTATTTGCC (site TCTACTGCTGG) | 0.424
55 | GCTAGCCCATGGACCGGTTTTCCCGGTAATCCGTATTTGAT (site GCTAGCCCTAT) | 0.197
56 | GCTAGCCCATGGACCGGTTTTCCCGGTAATCCGTATTTGAT (site GCTCGCCCTAT) | 0.0134
57 | GCTAGCCCATGGACCGGTTTTCCCGGTAATCCGTATTTGAT (site GCTGGCCCTAT) | 0.00566
58 | GCTAGCCCATGGACCGGTTTTCCCGGTAATCCGTATTTGAT (site GCTTGCCCTAT) | 0.00951
59 | GCTCAGGCATGGACCGGTTTTCCCGGTAATCCGTATTTGTA (site GCTCAGGCTTA) | 1.71
60 | GCTCGAGCATGGACCGGTTTTCCCGGTAATCCGTATTTGCA (site GATCGAGCTTG) | 0.25
61 | GCTCGAGCATGGACCGGTTTTCCCGGTAATCCGTATTTGCA (site GCTCGAGCTTG) | 2.67
62 | GCTCGAGCATGGACCGGTTTTCCCGGTAATCCGTATTTGCA (site GGTCGAGCTTG) | 0.679
63 | GCTCGAGCATGGACCGGTTTTCCCGGTAATCCGTATTTGCA (site GTTCGAGCTTG) | 0.655
64 | GCTCGATCATGGACCGGTTTTCCCGGTAATCCGTATTTGCA (site GCTCGATCTTG) | 2.07
65 | GCTCGCGCATGGACCGGTTTTCCCGGTAATCCGTATTTGGT (site GCTCGCGCTAC) | 0.984
66 | GCTCGGGCATGGACCGGTTTTCCCGGTAATCCGTATTTGAG (site GCTCGGGCTCT) | 0.866
67 | GCTCTAGCATGGACCGGTTTTCCCGGTAATCCGTATTTGAC (site GCTCTAGCTGT) | 1.67
68 | GCTCTCGCATGGACCGGTTTTCCCGGTAATCCGTATTTGTT (site GCTCTCGCTAA) | 0.534
69 | GCTGAACCATGGACCGGTTTTCCCGGTAATCCGTATTTGTC (site GCTGAACCTGA) | 0
70 | GCTGCGTCATGGACCGGTTTTCCCGGTAATCCGTATTTGGT (site GCTGCGTCTAC) | 0.732
71 | GCTGCTCCATGGACCGGTTTTCCCGGTAATCCGTATTTGCT (site GCTGCTCCTAG) | 0.276
72 | GCTGCTGCATGGACCGGTTTTCCCGGTAATCCGTATTTGCC (site GCTACTGCTGG) | 0.315
73 | GCTGCTGCATGGACCGGTTTTCCCGGTAATCCGTATTTGCC (site GCTCCTGCTGG) | 0
74 | GCTGCTGCATGGACCGGTTTTCCCGGTAATCCGTATTTGCC (site GCTGCTGCTGG) | 1.18
75 | GCTGCTGCATGGACCGGTTTTCCCGGTAATCCGTATTTGCC (site GCTTCTGCTGG) | 0
